This note sets out measurements from patent US7985771B2, “Furanone derivatives” (Monsanto Technology LLC, priority 2002, dated 2011).

Each structure is given as a SMILES string.

A word on the EC50: it is the concentration needed to bring the measured effect to its halfway point.

Assay [1] has as its system IL-1beta release from a mouse microglial cell line. The assay is described as follows: Interleukin-1 beta microglial cell assay. The format is cell-based. To be noted: LPS and IFN gamma stimulation, 24 hours, read-out: inhibition of IL-1beta induction, EC50. As for the experimental part: This assay measures the release of IL-1β from a mouse microglial cell line following an inflammatory challenge with LPS and interferon-gamma. The ability of test articles to inhibit microglial cell activation and IL-1beta release is determined by co-incubation of the test article with the inflammatory challenge. Cytokine release is measured using a mouse IL-1β ELISA and cell toxicity is determined using Cell Tracker Green (a fluorescent dye that measures cell viability).
Mouse microglial cells were seeded in poly-D-lysine coated 96-well plates at a density of 10,000 cells/well and allowed to attach for 24 hours. Cells were stimulated by addition of LPS (10 μg/ml) and IFN gamma (10 ng/ml) in the presence or absence of test article. The cells were then incubated for 24 hours at 37° C., after which time the media was removed and used for cytokine determination as described below.
Viability of mouse microglial cells after exposure to the test article was determined using a fluorescent viability dye, Cell Tracker Green. Cell Tracker Green was used at a working concentration of 5 μM in 1× HBSS. Cells were washed once with HBSS (200 μl/well) and 100 μl Cell Tracker Green was added to each well. Cells were then incubated at 37° C. for 30 minutes, after which time the Cell Tracker was removed and the cells were washed once with HBSS (200 μl/well). 100 μl fresh HBSS was added to each well and the plate was read on a Fluoroskan plate reader using an excitation wavelength of 485 nm and an emission wavelength of 538 nm.
1. The IL-1β capture antibody was reconstituted in 1 ml of PBS to give a final concentration of 720 μg/ml, and the working concentration was 4 μg/ml. For coating one 96-well plate (at 100 μl/well) 56 μl of the 720 μg/ml stock was diluted into 10 ml of PBS. 2. The IL-1β standards were reconstituted in 0.5 ml of Reagent Diluent (70 ng/ml). For a high standard of 1 ng/ml (2 wells at 100 μl each+enough for series dilution) 7.1 μl of the 70 ng/ml standard were diluted into 0.5 ml of Reagent Diluent 3. The IL-1β detection antibody was reconstituted in 1 ml of Reagent Diluent to give a final concentration of 18 μg/ml and the working concentration is 100 ng/ml. For one 96-well plate (at 100 μl/well) 56 μl of the 18 μg/ml stock was diluted into 10 ml of Reagent Diluent.
1. The Costar EIA Hi-binding plate was coated with capture antibody at 4 μg/ml. Each well was coated with 100 μl, and the plate was sealed and incubated overnight at room temperature.
2. Each well was aspirated and washed 3× with Wash Buffer. Each well was filled to the top, dispensed, and any remaining buffer was removed by inverting the plate and gently blotting against clean paper towels.
3. Non-specific binding sites were blocked by adding 300 μl of Blocking Buffer to each well, and after sealing incubating for at least 1 hour at room temperature.
5. 100 μl of either standard or sample were added in each well of the capture-coated and pre-blocked plate. The plate was sealed and incubated for 2 hours at room temperature, followed with washing as in step 2.
6. 100 μl of the detection antibody ([…]) were added to each well.
7. The plate was sealed and incubated at room temperature for 2 hours, followed with washing as in step 2.
8. 100 μl of the working dilution of Streptavidin-HRP was added, and the plate was sealed and incubated in the dark for 20 minutes at room temperature, followed with washing as in Step 2.
9. The fresh Substrate Solution was prepared by mixing Color Reagent A (H2O2) and Color Reagent B (Tetramethylbenzidine) in a 1:1 ratio. 100 μl of this Substrate Solution mixture was added to each well and the plate was incubated in the dark for 20 minutes at room temperature. 10. 50 μl of Stop Solution was added to each well, mixing was ensured by gently tapping. 11. Each plate was read with the Spectramax once at 450 nm. Results

The test system of assay [2] is ELAM (E-selectin) expression in endothelial cells. Description: E-selectin (ELAM) cell inflammation assay. To be noted: LPS and IL-1β stimulation, read-out: reduction of expression of ELAM, EC50. It counts as cell-based. As for the experimental part:
Endothelial-Leukocyte Adhesion Molecule (ELAM), also known as E-selectin, is expressed on the surface of endothelial cells. In this assay, lipopolysaccharide (LPS) and IL-1β are used to stimulate the expression of ELAM; test agents are tested for their abilities to reduce this expression, in accordance with studies showing that reduction of leukocyte adhesion to endothelial cell surface is associated with decreased cellular damage (e.g., Takada, M., Et al., Transplantation 64: 1520-25, 1997; Steinberg, J. B., et al., J. Heart Lung Trans. 13:306-313, 1994).
Endothelial cells may be selected from any of a number of sources and cultured according to methods known in the art; including, for example, coronary artery endothelial cells, human brain microvascular endothelial cells (HBMEC; Hess, D.C., et al., Neurosci. Left. 213(1): 37-40, 1996), or lung endothelial cells. Cells are conveniently cultured in 96-well plates. Cells are stimulated by adding a solution to each well containing 10 μg/ml LPS and 100 pg/ml IL-1β for 6 hours in the presence of test agent (specific concentrations and time may be adjusted depending on the cell type). Treatment buffer is removed and replaced with pre-warmed Fixing Solution® (100 μl/well) for 25 minutes at room temperature. Cells are then washed 3×, then incubated with Blocking Buffer (PBS+2% FBS) for 25 minutes at room temperature. Blocking Buffer containing Monoclonal E-Selectin Antibody (1:750, Sigma Catalog #S-9555) is added to each well. Plates are sealed and stored at 4° overnight. Plates are washed 4× with 160 μL Blocking Buffer per well. Second Antibody-HRP diluted 1:5000 in Blocking Buffer is then added (100 μL/well), and plates are incubated at room temperature (protected from light) for two hours. Plates are then washed 4× with Blocking Buffer before addition of 100 μL of ABTS Substrate solution at room temperature (Zymed, Catalog #00-2024). Wells are allowed to develop for 35 minutes, before measurement at 402 nm in a Fluoroskan® Reader with shake program for 10 seconds. Positive results are recorded as a decrease in ELAM concentration in tested wells, as compared to control wells.

As for `CCOC(=O)C1(CSc2nc3ccc([N+](=O)[O-])cc3s2)OC(=O)C(O)=C1Sc1nc2ccc([N+](=O)[O-])cc2s1` (centres unmarked) [4-Hydroxy-3-(6-nitro-benzothiazol-2-ylsulfanyl)-2-(6-nitro-benzothiazol-2-ylsulfanylmethyl)-5-oxo-2,5-dihydro-furan-2-carboxylic acid ethyl ester], the 50% effective concentration (EC50) in assay [1] was at most 20 µM; in assay [2] it was at most 30 µM.

Consider `CCOC(=O)C1(CSc2ccc(C=CC(=O)OC)cc2)OC(=O)C(O)=C1Sc1ccc(C=CC(=O)OC)cc1` (centres unmarked) [4-Hydroxy-3-[4-(2-methoxycarbonyl-vinyl)-phenylsulfanyl]-2-[4-(2-methoxycarbonyl-vinyl)-phenylsulfanylmethyl]-5-oxo-2,5-dihydro-furan-2-carboxylic acid ethyl ester], for which the EC50 in assay [1] was at most 20 µM; in assay [2], at most 30 µM.

As to `CCOC(=O)C1(CSc2nc(-c3ccccc3)cs2)OC(=O)C(O)=C1Sc1nc(-c2ccccc2)cs1` (centres unmarked) [4-Hydroxy-5-oxo-3-(4-phenyl-thiazol-2-ylsulfanyl)-2-(4-phenyl-thiazol-2-ylsulfanylmethyl)-2,5-dihydro-furan-2-carboxylic acid ethyl ester], the EC50 in assay [1] was at most 20 µM; in assay [2] it was at most 30 µM.

As to `CCOC(=O)C1(CSc2nccc(C(F)(F)F)n2)OC(=O)C(O)=C1Sc1nccc(C(F)(F)F)n1` (centres unmarked) [4-Hydroxy-5-oxo-3-(4-trifluoromethyl-pyrimidin-2-ylsulfanyl)-2-(4-trifluoromethyl-pyrimidin-2-ylsulfanylmethyl)-2,5-dihydro-furan-2-carboxylic acid ethyl ester], the EC50 was at most 20 µM in assay [1] and at most 30 µM in assay [2].
